Legend:
Assay in all cases: Herbicidal effect by foliage and soil treatment
Format in all cases: in vivo
Conditions in all cases: 10 g ai/10a, evaluated after 14 days
[1] = test system: ivyleafspeedwell (Veronica hederaefolia)
Text: (§1) Experiment for Determination of Herbicidal Effect by Foliate and Soil Treatment Seeds of redroot pigweed (Amaranthus retroflexus), common blackjack (Bidens pilosa), kediock (Sinapis arvensis), common chickweed (Stellaria media), sicklepod (Cassia obtusifolia), black nightshade (Solanum nigrum), velvetleaf (Abutilon theophrasti), field bindweed (Convolvulus arvensis), wild chamomile (Matricaria chamomilla), cleavers (Galium aparine) and […] (Veronica hederaefolia), were uniformly sowed over a horticultural granular soil (produced by KUREHA CHEMICAL INDUSTRY, CO., LTD.; the same soil was used hereinafter) filled in a planter. The planter was placed in a greenhouse (maintained at 19 to 25° C.) to sprout these plants. Two seedlings of each sprouted plant were transplanted to a 10 cm-diameter pot filled with the horticultural granular soil and cultivated in the greenhouse (maintained at 19 to 25° C.) until reaching a cotyledonal to bifoliate period suited to the foliage and soil treatment. […] Next, additional amounts of Tween 20 and water were added to the obtained solution or suspension to produce a test solution. The plants prepared in the above (1) were placed within a frame having a predetermined inside area, and uniformly sprayed with the test solution using a sprayer such that the amount of each compound applied was controlled to a predetermined level. The plants sprayed with the test solution were placed again in the greenhouse (maintained at 19 to 25° C.) and cultivated therein. After 14 days, the degree of growth of each plant cultivated in the treated region was compared with that of plant cultivated in non-treated region, and evaluated according to the following ratings. The herbicidal activity of each test compound was represented by these ratings

[2] = test system: redroot pigweed (Amaranthus retroflexus)
Text: as §1

[3] = test system: cleavers (Galium aparine)
Text: as §1

[4] = test system: common chickweed (Stellaria media)
Text: as §1

[5] = test system: black nightshade (Solanum nigrum)
Text: as §1

[6] = test system: sicklepod (Cassia obtusifolia)
Text: as §1

[7] = test system: kediock (Sinapis arvensis)
Text: as §1

[8] = test system: wild chamomile (Matricaria chamomilla)
Text: as §1

[9] = test system: field bindweed (Convolvulus arvensis)
Text: as §1

[10] = test system: common blackjack (Bidens pilosa)
Text: as §1

[11] = test system: velvetleaf (Abutilon theophrasti)
Text: as §1

## COc1cc(Oc2cccc(C(F)(F)F)c2)nc(C(=O)NC2CCCCC2)c1 [Compound I-43]
[1]
  herbicidal activity rating, VH (Veronica hederaefolia): 5 (percentage of weeds killed was not less than 80%)
[2]
  herbicidal activity rating, AR (Amaranthus retroflexus): 5 (percentage of weeds killed was not less than 80%)
[3]
  herbicidal activity rating, GA (Galium aparine): 5 (percentage of weeds killed was not less than 80%)
[4]
  herbicidal activity rating, SM (Stellaria media): 5 (percentage of weeds killed was not less than 80%)
[5]
  herbicidal activity rating, SN (Solanum nigrum): 5 (percentage of weeds killed was not less than 80%)
[6]
  herbicidal activity rating, CO (Cassia obtusifolia): 5 (percentage of weeds killed was not less than 80%)
[7]
  herbicidal activity rating, SA (Sinapis arvensis): 5 (percentage of weeds killed was not less than 80%)
[8]
  herbicidal activity rating, MC (Matricaria chamomilla): 4 (percentage of weeds killed was not less than 60% and less than 80%)
[9]
  herbicidal activity rating, CA (Convolvulus arvensis): 5 (percentage of weeds killed was not less than 80%)
[10]
  herbicidal activity rating, BP (Bidens pilosa): 4 (percentage of weeds killed was not less than 60% and less than 80%)
[11]
  herbicidal activity rating, AT (Abutilon theophrasti): 4 (percentage of weeds killed was not less than 60% and less than 80%)

## CCNC(=S)c1cc(OC)cc(Oc2cccc(C(F)(F)F)c2)n1 [Compound I-44]
[1]
  herbicidal activity rating, VH (Veronica hederaefolia): 5 (percentage of weeds killed was not less than 80%)
[2]
  herbicidal activity rating, AR (Amaranthus retroflexus): 5 (percentage of weeds killed was not less than 80%)
[3]
  herbicidal activity rating, GA (Galium aparine): 5 (percentage of weeds killed was not less than 80%)
[4]
  herbicidal activity rating, SM (Stellaria media): 5 (percentage of weeds killed was not less than 80%)
[5]
  herbicidal activity rating, SN (Solanum nigrum): 5 (percentage of weeds killed was not less than 80%)
[6]
  herbicidal activity rating, CO (Cassia obtusifolia): 5 (percentage of weeds killed was not less than 80%)
[7]
  herbicidal activity rating, SA (Sinapis arvensis): 5 (percentage of weeds killed was not less than 80%)
[8]
  herbicidal activity rating, MC (Matricaria chamomilla): 3 (percentage of weeds killed was not less than 40% and less than 60%)
[9]
  herbicidal activity rating, CA (Convolvulus arvensis): 4 (percentage of weeds killed was not less than 60% and less than 80%)
[10]
  herbicidal activity rating, BP (Bidens pilosa): 4 (percentage of weeds killed was not less than 60% and less than 80%)
[11]
  herbicidal activity rating, AT (Abutilon theophrasti): 4 (percentage of weeds killed was not less than 60% and less than 80%)

## COc1cc(Oc2cccc(C(F)(F)F)c2)nc(C(=O)NCc2ccccc2)c1 [Compound I-45, N-benzyl-4-methoxy-6-{3-(trifluoromethyl)phenoxy}-2-pyridine carboxamide]
[1]
  herbicidal activity rating, VH (Veronica hederaefolia): 5 (percentage of weeds killed was not less than 80%)
[2]
  herbicidal activity rating, AR (Amaranthus retroflexus): 5 (percentage of weeds killed was not less than 80%)
[3]
  herbicidal activity rating, GA (Galium aparine): 5 (percentage of weeds killed was not less than 80%)
[4]
  herbicidal activity rating, SM (Stellaria media): 5 (percentage of weeds killed was not less than 80%)
[5]
  herbicidal activity rating, SN (Solanum nigrum): 5 (percentage of weeds killed was not less than 80%)
[6]
  herbicidal activity rating, CO (Cassia obtusifolia): 5 (percentage of weeds killed was not less than 80%)
[7]
  herbicidal activity rating, SA (Sinapis arvensis): 5 (percentage of weeds killed was not less than 80%)
[8]
  herbicidal activity rating, MC (Matricaria chamomilla): 2 (percentage of weeds killed was not less than 20% and less than 40%)
[9]
  herbicidal activity rating, CA (Convolvulus arvensis): 5 (percentage of weeds killed was not less than 80%)
[10]
  herbicidal activity rating, BP (Bidens pilosa): 5 (percentage of weeds killed was not less than 80%)
[11]
  herbicidal activity rating, AT (Abutilon theophrasti): 4 (percentage of weeds killed was not less than 60% and less than 80%)

## CNC(=O)c1cc(OC)cc(Oc2cccc(C(F)(F)F)c2)n1 [Compound I-46]
[1]
  herbicidal activity rating, VH (Veronica hederaefolia): 5 (percentage of weeds killed was not less than 80%)
[2]
  herbicidal activity rating, AR (Amaranthus retroflexus): 5 (percentage of weeds killed was not less than 80%)
[3]
  herbicidal activity rating, GA (Galium aparine): 5 (percentage of weeds killed was not less than 80%)
[4]
  herbicidal activity rating, SM (Stellaria media): 5 (percentage of weeds killed was not less than 80%)
[5]
  herbicidal activity rating, SN (Solanum nigrum): 5 (percentage of weeds killed was not less than 80%)
[6]
  herbicidal activity rating, CO (Cassia obtusifolia): 5 (percentage of weeds killed was not less than 80%)
[7]
  herbicidal activity rating, SA (Sinapis arvensis): 5 (percentage of weeds killed was not less than 80%)
[8]
  herbicidal activity rating, MC (Matricaria chamomilla): 3 (percentage of weeds killed was not less than 40% and less than 60%)
[9]
  herbicidal activity rating, CA (Convolvulus arvensis): 5 (percentage of weeds killed was not less than 80%)
[10]
  herbicidal activity rating, BP (Bidens pilosa): 3 (percentage of weeds killed was not less than 40% and less than 60%)
[11]
  herbicidal activity rating, AT (Abutilon theophrasti): 4 (percentage of weeds killed was not less than 60% and less than 80%)

## CNC(=S)c1cc(OC)cc(Oc2cccc(C(F)(F)F)c2)n1 [Compound I-47]
[1]
  herbicidal activity rating, VH (Veronica hederaefolia): 5 (percentage of weeds killed was not less than 80%)
[2]
  herbicidal activity rating, AR (Amaranthus retroflexus): 5 (percentage of weeds killed was not less than 80%)
[3]
  herbicidal activity rating, GA (Galium aparine): 5 (percentage of weeds killed was not less than 80%)
[4]
  herbicidal activity rating, SM (Stellaria media): 4 (percentage of weeds killed was not less than 60% and less than 80%)
[5]
  herbicidal activity rating, SN (Solanum nigrum): 5 (percentage of weeds killed was not less than 80%)
[6]
  herbicidal activity rating, CO (Cassia obtusifolia): 5 (percentage of weeds killed was not less than 80%)
[7]
  herbicidal activity rating, SA (Sinapis arvensis): 5 (percentage of weeds killed was not less than 80%)
[8]
  herbicidal activity rating, MC (Matricaria chamomilla): 3 (percentage of weeds killed was not less than 40% and less than 60%)
[9]
  herbicidal activity rating, CA (Convolvulus arvensis): 5 (percentage of weeds killed was not less than 80%)
[10]
  herbicidal activity rating, BP (Bidens pilosa): 3 (percentage of weeds killed was not less than 40% and less than 60%)
[11]
  herbicidal activity rating, AT (Abutilon theophrasti): 5 (percentage of weeds killed was not less than 80%)

## COc1cc(Oc2cccc(C(F)(F)F)c2)nc(C(=O)NC2CC2)c1 [Compound I-48, N-cyclopropyl-4-methoxy-6-{3-(trifluoromethyl)phenoxy}-2-pyridine carboxamide]
[1]
  herbicidal activity rating, VH (Veronica hederaefolia): 5 (percentage of weeds killed was not less than 80%)
[2]
  herbicidal activity rating, AR (Amaranthus retroflexus): 5 (percentage of weeds killed was not less than 80%)
[3]
  herbicidal activity rating, GA (Galium aparine): 5 (percentage of weeds killed was not less than 80%)
[4]
  herbicidal activity rating, SM (Stellaria media): 5 (percentage of weeds killed was not less than 80%)
[5]
  herbicidal activity rating, SN (Solanum nigrum): 5 (percentage of weeds killed was not less than 80%)
[6]
  herbicidal activity rating, CO (Cassia obtusifolia): 5 (percentage of weeds killed was not less than 80%)
[7]
  herbicidal activity rating, SA (Sinapis arvensis): 5 (percentage of weeds killed was not less than 80%)
[8]
  herbicidal activity rating, MC (Matricaria chamomilla): 5 (percentage of weeds killed was not less than 80%)
[9]
  herbicidal activity rating, CA (Convolvulus arvensis): 5 (percentage of weeds killed was not less than 80%)
[10]
  herbicidal activity rating, BP (Bidens pilosa): 4 (percentage of weeds killed was not less than 60% and less than 80%)
[11]
  herbicidal activity rating, AT (Abutilon theophrasti): 5 (percentage of weeds killed was not less than 80%)

## COc1cc(Oc2cccc(C(F)(F)F)c2)nc(C(=O)NC2CCC2)c1 [Compound I-49]
[1]
  herbicidal activity rating, VH (Veronica hederaefolia): 5 (percentage of weeds killed was not less than 80%)
[2]
  herbicidal activity rating, AR (Amaranthus retroflexus): 5 (percentage of weeds killed was not less than 80%)
[3]
  herbicidal activity rating, GA (Galium aparine): 5 (percentage of weeds killed was not less than 80%)
[4]
  herbicidal activity rating, SM (Stellaria media): 5 (percentage of weeds killed was not less than 80%)
[5]
  herbicidal activity rating, SN (Solanum nigrum): 5 (percentage of weeds killed was not less than 80%)
[6]
  herbicidal activity rating, CO (Cassia obtusifolia): 5 (percentage of weeds killed was not less than 80%)
[7]
  herbicidal activity rating, SA (Sinapis arvensis): 5 (percentage of weeds killed was not less than 80%)
[8]
  herbicidal activity rating, MC (Matricaria chamomilla): 5 (percentage of weeds killed was not less than 80%)
[9]
  herbicidal activity rating, CA (Convolvulus arvensis): 5 (percentage of weeds killed was not less than 80%)
[10]
  herbicidal activity rating, BP (Bidens pilosa): 5 (percentage of weeds killed was not less than 80%)
[11]
  herbicidal activity rating, AT (Abutilon theophrasti): 5 (percentage of weeds killed was not less than 80%)
